Legend:
[1] = enalaprilate release from segmented silicon disc release apparatus; type: physicochemical
Excerpt: A release apparatus was produced from round silicon discs (outer diameter 14.0 mm, thickness 0.525 mm) having a very low surface roughness. The release apparatus consisted of 15 discs having a core drilling (diameter=8 mm), a silicon disc without a core drilling as a cover plate and a base plate having closable openings for filling. A silicon disc having a core drilling was glued onto the base plate of titanium. The release apparatus was assembled underwater and fixed by means of a holder. Subsequently, the reservoir was emptied through the reclosable openings in the base plate before the release apparatus was filled with an enalaprilate suspension.
As in Example 3, a release apparatus was produced from round silicon discs (outer diameter 14.0 mm, thickness 0.525 mm), the silicon discs being coated with polyelectrolyte multilayers. Before the assembly of the release apparatus, the silicon discs were coated with a 16 PAH/PSS layer.
As in Example 4, a release apparatus was produced from round coated silicon discs (outer diameter 14.0 mm, thickness 0.525 mm), 25 discs having a core drilling being used.

[2] = ibuprofen release from segmented glass release apparatus in phosphate saline buffer; type: physicochemical; settings: 10 intersegment films, 37° C., phosphate saline buffer pH 7.4 with sodium azide
Method: A release apparatus was produced from glass discs 3 to 11 (soda-lime glass, edge lengths 26.0×26.0 mm, disc thickness of 1.0 mm) having a surface roughness of 0.172-1.39 Ra (see FIGS. 7A and 7B). The release apparatus consisted of 9 discs (26.0×26.0 mm) having a core drilling 13 (diameter=8 mm) and was closed off on both sides by two discs without a core drilling. Separate intersegment films were not used. A reservoir volume of theoretically 452.4 μl results in the case of 9 discs having a core drilling and a disc thickness of 1.0 mm. The release apparatus was filled with a model substance before closing (100 mg of crystalline ibuprofen) and the remaining reservoir volume was subsequently filled with release medium. Following this, the release behavior of the model substance was investigated at 37° C. in phosphate saline buffer pH 7.4 with addition of sodium azide. FIGS. 7C and 7D show the ibuprofen release from the segmented glass apparatus having 10 intersegment films in phosphate saline buffer pH 7.4 with addition of sodium azide. […] A release apparatus consisting of glass discs (soda-lime glass, edge lengths 26.0×26.0 mm, disc thickness of 1.0 mm) having a surface roughness of 0.172-1.39 Ra was produced (see FIGS. 7A and 7B), the discs being modified by a separating film covering only the outer edges of the discs such that an intersegment film thickness (hollow space) of about 50 μm was present. The release apparatus consisted of 9 discs 3 to 11 (26.0×26.0 mm) having a core drilling 13 (diameter=8 mm) and was closed off on both sides by two discs without a core drilling. Before closing, the release apparatus was filled with a model substance (100 mg of crystalline ibuprofen) and the remaining reservoir volume was subsequently filled with release medium. Following this, the release behavior of the model substance was investigated at 37° C. in phosphate saline buffer pH 7.4 with addition of sodium azide. […]

release rate ([1]; Example 3: uncoated silicon discs, 15 intersegment films, enalaprilate suspension)	release rate ([1]; Example 4: silicon discs coated with 16 PAH/PSS layer, 15 modified intersegment films)	release rate ([1]; Example 5: coated silicon discs, 25 modified intersegment films)	release rate of the model substance (constant release behavior) ([2]; Example 1: glass apparatus, no separate films, 100 mg crystalline ibuprofen)	duration of constant release behavior ([2]; Example 1: glass apparatus, no separate films)	release rate of the model substance ([2]; Example 2: glass apparatus, modified film thickness (hollow space) about 50 μm, 100 mg crystalline ibuprofen, for 10 to 100 days)	SMILES
about 150 μg per day	about 75 μg per day	about 140 μg per day	–	–	–	C[C@H](N[C@@H](CCc1ccccc1)C(=O)O)C(=O)N1CCC[C@H]1C(=O)O [enalaprilate]
–	–	–	about 65 μg/d	more than 100 days	about 0.6 mg/d	CC(C)Cc1ccc(C(C)C(=O)O)cc1 (stereo not drawn) [ibuprofen]

From patent US20090117170A1, “SEGMENTED DEVICE FOR THE DELAYED RELEASE OF MOLECULES IN A TANGENTIAL DIRECTION THROUGH THIN FILMS AND USES THEREOF” (CAPSULUTION NANOSCIENCE AG, priority 2004, published 2009)
